Experimental data reported in PubChem BioAssay AID2060901 (Molecular Pharmacology Branch, DTP, NCI, 2025).

Tested on: 422866-222-R5-J1-PDC complex spheroids viability
Assay: Anticancer human tumor 422866-222-R5-J1-PDC patient-derived pancreatic adenocarcinoma cell line growth inhibition [RAS]
Conditions: for IC50: curve of first compound; for viability, T/C: stronger effect = lower value
Source text: RAS pathway inhibitors in Combinations in Complex Spheroids
A high-throughput screen of multi-cell type tumor spheroids was designed to identify active combinations of RAS pathway inhibitors and targeted small molecules. Complex spheroids include a stromal component modeled by human endothelial cells (HUVEC) and fibroblasts modeled by human mesenchymal stem cells (MSCs). The concentration ranges selected for each drug and investigational agent were based upon clinically achievable concentrations if the clinical Cmax of the agent was known.
Compounds. The drugs and investigational agents: abemaciclib (NSC768073), cobimetinib (NSC768068), divarasib (GDC6063, NSC841802), docetaxel (NSC628503), GDC-1971 (RLY-1971, NSC841576), gemcitabine (NSC613327), inavolisib (NSC800729), ipatasertib (NSC767898), KB-0742 (NSC834161), MRTX-1133 (NSC836407), osimertinib (NSC779217), RMC-4630 (NSC839698), RMC-6236 (NSC851965), RMC-6291 (NSC852671), Ro-3306 (NSC812927), sapanisertib (NSC764658), SN-38 (NSC673596), staurosporine (NSC755774), SY5609 (NSC837396), and tovorafenib (DAY101, NSC766906), were obtained from the National Cancer Institute (NCI) Developmental Therapeutics Program Chemical Repository. The FDA-approved anticancer drug set is available from the NCI Developmental Therapeutics Program. […] The stock solutions were prepared in dimethyl sulfoxide (DMSO, Sigma-Aldrich, St. Louis, MO, cat. D2650) at 800-fold the tested concentration and stored at -70 degrees C prior to their use. All drugs and investigational agents were tested over a range starting from a high concentration at or near the clinical Cmax and decreasing in half-log increments. If the clinical Cmax for an agent had not been determined, the highest concentration tested was 10 microM.
Cell Culture. All cells were maintained in an incubator at 37 degrees C and 5% CO2 with 95% humidity. The PDC lines were cultured according to standard operating procedures established by the NCI PDMR. All PDCs were thawed and cultured in Matrigel-coated flasks prepared with a working solution of 1X Ham's F-12 nutrient mix, without supplementation (Invitrogen, Waltham, MA, cat. 11765054), 100 U/mL penicillin-streptomycin (Invitrogen, cat. 15140122), and 2.5% Matrigel (Corning Inc., Corning, NY, cat. 354248) for the first three passages. The 362531-283-R-J2-PDC and 782815-120-R-J1-PDC lines were cultured in 6C/Colon 1B media, which includes advanced DMEM/F-12 (Thermo Fisher Scientific, cat. 12634028), 10 mM HEPES (Thermo Fisher Scientific, cat. 15630080), 1X GlutaMAX supplement (Thermo Fisher Scientific, cat. 35050061), 0.1 mg/mL primocin (InvivoGen, San Diego, CA, cat. ant-pm-2), 10% defined fetal bovine serum, heat inactivated (HyClone Laboratories Inc., Logan, UT, cat. SH30070.03HI), 50% L-WRN conditioned media (ATCC, cat. CRL-3276), 1.25 mM N-Acetyl-L-cysteine (Sigma-Aldrich, cat. A9165), 10 mM nicotinamide (Sigma-Aldrich, cat. N0636), 1X B-27 supplement (Thermo Fisher Scientific, cat. 17504044), 1X N-2 supplement (Thermo Fisher Scientific, cat. 17502048), 50 ng/mL human EGF (Thermo Fisher Scientific, cat. PHG0311), and 10 microM Y-27632 dihydrochloride (Tocris Bioscience, cat. 1254). The K12877-001-R-J1-PDC line was cultured in 6I media, which includes all 6C/Colon 1B media plus 10 ng/mL human FGF-10 (PeproTech, cat. 100-26), 1 ng/mL human FGF-2 (PeproTech, cat. 100-18B), 1 µM prostaglandin E2 (Tocris Bioscience, cat. 2296), […] hydrocortisone (Sigma-Aldrich, cat. H4001), and […] bovine insulin (Sigma-Aldrich, cat. I6634). The K86415-001-R-J1-PDC line was cultured in 6D media, which includes all 6C/Colon 1B media components minus the L-WRN conditioned media. The 485176-168-R4-J1-PDC was cultured in PANC media, which includes all 6C/Colon 1B media plus 100 ng/mL human FGF-10 (PeproTech, cat. 100-26), 500 nM SB-431542 (Selleckchem, cat. S1067), and 10 nM gastrin (Tocris Bioscience, cat. 3006). […]

[1] = second compound 0.0316 µM, first compound 0.0316 µM
[2] = second compound 0.0316 µM, first compound 0.1 µM
[3] = second compound 0.0316 µM, first compound 0.316 µM
[4] = second compound 0.0316 µM, first compound 1 µM
[5] = second compound 0.0316 µM, first compound 3.16 µM
[6] = second compound 0.0316 µM, first compound 10 µM
[7] = second compound 0.1 µM, first compound 0.0316 µM
[8] = second compound 0.1 µM, first compound 0.1 µM
[9] = second compound 0.1 µM, first compound 0.316 µM
[10] = second compound 0.1 µM, first compound 1 µM
[11] = second compound 0.1 µM, first compound 3.16 µM
[12] = second compound 0.1 µM, first compound 10 µM
[13] = second compound 0.316 µM, first compound 0.0316 µM
[14] = second compound 0.316 µM, first compound 0.1 µM
[15] = second compound 0.316 µM, first compound 0.316 µM
[16] = second compound 0.316 µM, first compound 1 µM
[17] = second compound 0.316 µM, first compound 3.16 µM
[18] = second compound 0.316 µM, first compound 10 µM
[19] = second compound 1 µM, first compound 0.0316 µM
[20] = second compound 1 µM, first compound 0.1 µM
[21] = second compound 1 µM, first compound 0.316 µM
[22] = second compound 1 µM, first compound 1 µM
[23] = second compound 1 µM, first compound 3.16 µM
[24] = second compound 1 µM, first compound 10 µM
[25] = second compound 3.16 µM, first compound 0.0316 µM
[26] = second compound 3.16 µM, first compound 0.1 µM
[27] = second compound 3.16 µM, first compound 0.316 µM
[28] = second compound 3.16 µM, first compound 1 µM
[29] = second compound 3.16 µM, first compound 3.16 µM
[30] = second compound 3.16 µM, first compound 10 µM
[31] = second compound 10 µM, first compound 0.0316 µM
[32] = second compound 10 µM, first compound 0.1 µM
[33] = second compound 10 µM, first compound 0.316 µM
[34] = second compound 10 µM, first compound 1 µM
[35] = second compound 10 µM, first compound 3.16 µM
[36] = second compound 10 µM, first compound 10 µM
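Throughout, for viability, T/C: 100% = DMSO vehicle control viability.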

SMILES: CCC(CC)c1cc(NC2CCC(N)C2)n2nccc2n1 (stereo unspecified) + C#Cc1c(F)ccc2cc(O)cc(-c3ncc4c(N5CC6CCC(C5)N6)nc(OCC56CCCN5CC(F)C6)nc4c3F)c12
- IC50 (second compound 0.0316 µM): 1860 nM
- IC50 (second compound 0.1 µM): 1690 nM
- IC50 (second compound 0.316 µM): 1340 nM
- IC50 (second compound 1 µM): 466 nM
- IC50 (second compound 3.16 µM): < 31.6 nM
- IC50 (second compound 10 µM): < 31.6 nM
- viability, T/C [1]: 97.8%
- viability, T/C [2]: 104%
- viability, T/C [3]: 118%
- viability, T/C [4]: 75.7%
- viability, T/C [5]: 19.7%
- viability, T/C [6]: 36.2%
- viability, T/C [7]: 99%
- viability, T/C [8]: 125%
- viability, T/C [9]: 98.2%
- viability, T/C [10]: 71.9%
- viability, T/C [11]: 12.5%
- viability, T/C [12]: 35.3%
- viability, T/C [13]: 75%
- viability, T/C [14]: 85.1%
- viability, T/C [15]: 83.4%
- viability, T/C [16]: 58.5%
- viability, T/C [17]: 12.3%
- viability, T/C [18]: 38.6%
- viability, T/C [19]: 50.2%
- viability, T/C [20]: 57.9%
- viability, T/C [21]: 47.8%
- viability, T/C [22]: 46.1%
- viability, T/C [23]: 12.7%
- viability, T/C [24]: 35.3%
- viability, T/C [25]: 35.6%
- viability, T/C [26]: 28.6%
- viability, T/C [27]: 33.3%
- viability, T/C [28]: 33.9%
- viability, T/C [29]: 10.5%
- viability, T/C [30]: 39.9%
- viability, T/C [31]: 21.7%
- viability, T/C [32]: 24.9%
- viability, T/C [33]: 30.2%
- viability, T/C [34]: 27.6%
- viability, T/C [35]: 9.17%
- viability, T/C [36]: 35%

SMILES: Cc1nc(N2CCC3(CC2)COC(C)C3N)c(CO)nc1Sc1ccnc(N)c1Cl (stereo unspecified) + C#Cc1c(F)ccc2cc(O)cc(-c3ncc4c(N5CC6CCC(C5)N6)nc(OCC56CCCN5CC(F)C6)nc4c3F)c12
- IC50 (second compound 0.0316 µM): 328 nM
- IC50 (second compound 0.1 µM): 126 nM
- IC50 (second compound 0.316 µM): 61.6 nM
- IC50 (second compound 1 µM): < 31.6 nM
- IC50 (second compound 3.16 µM): < 31.6 nM
- IC50 (second compound 10 µM): < 31.6 nM
- viability, T/C [1]: 74.7%
- viability, T/C [2]: 65.3%
- viability, T/C [3]: 49.2%
- viability, T/C [4]: 42.2%
- viability, T/C [5]: 39.6%
- viability, T/C [6]: 35.9%
- viability, T/C [7]: 80.5%
- viability, T/C [8]: 52.5%
- viability, T/C [9]: 38.9%
- viability, T/C [10]: 36.8%
- viability, T/C [11]: 34.8%
- viability, T/C [12]: 30.5%
- viability, T/C [13]: 62.4%
- viability, T/C [14]: 40.5%
- viability, T/C [15]: 33.2%
- viability, T/C [16]: 30.3%
- viability, T/C [17]: 29.9%
- viability, T/C [18]: 26.7%
- viability, T/C [19]: 37.6%
- viability, T/C [20]: 46.7%
- viability, T/C [21]: 24.3%
- viability, T/C [22]: 22%
- viability, T/C [23]: 24.5%
- viability, T/C [24]: 20.9%
- viability, T/C [25]: 24.5%
- viability, T/C [26]: 23.1%
- viability, T/C [27]: 20.3%
- viability, T/C [28]: 16.5%
- viability, T/C [29]: 18%
- viability, T/C [30]: 18.3%
- viability, T/C [31]: 16.5%
- viability, T/C [32]: 19.6%
- viability, T/C [33]: 18%
- viability, T/C [34]: 14.8%
- viability, T/C [35]: 15%
- viability, T/C [36]: 16.3%

SMILES: NC1c2ccccc2OC12CCN(c1cnc3c(N4CCCc5ncccc54)n[nH]c3n1)CC2 (stereo unspecified) + C#Cc1c(F)ccc2cc(O)cc(-c3ncc4c(N5CC6CCC(C5)N6)nc(OCC56CCCN5CC(F)C6)nc4c3F)c12
- IC50 (second compound 0.0316 µM): 55.8 nM
- IC50 (second compound 0.1 µM): < 31.6 nM
- IC50 (second compound 0.316 µM): < 31.6 nM
- IC50 (second compound 1 µM): < 31.6 nM
- IC50 (second compound 3.16 µM): < 31.6 nM
- IC50 (second compound 10 µM): < 31.6 nM
- viability, T/C [1]: 53%
- viability, T/C [2]: 49.2%
- viability, T/C [3]: 34.8%
- viability, T/C [4]: 38.4%
- viability, T/C [5]: 29.5%
- viability, T/C [6]: 23.6%
- viability, T/C [7]: 44%
- viability, T/C [8]: 43.3%
- viability, T/C [9]: 32.8%
- viability, T/C [10]: 28.7%
- viability, T/C [11]: 27.7%
- viability, T/C [12]: 25.5%
- viability, T/C [13]: 38.1%
- viability, T/C [14]: 36.2%
- viability, T/C [15]: 24.1%
- viability, T/C [16]: 26.4%
- viability, T/C [17]: 24.2%
- viability, T/C [18]: 19.7%
- viability, T/C [19]: 27.1%
- viability, T/C [20]: 23.9%
- viability, T/C [21]: 25.2%
- viability, T/C [22]: 17%
- viability, T/C [23]: 19.6%
- viability, T/C [24]: 15%
- viability, T/C [25]: 17.8%
- viability, T/C [26]: 19.8%
- viability, T/C [27]: 16.1%
- viability, T/C [28]: 17.4%
- viability, T/C [29]: 17.5%
- viability, T/C [30]: 14.9%
- viability, T/C [31]: 15.7%
- viability, T/C [32]: 16.5%
- viability, T/C [33]: 14.3%
- viability, T/C [34]: 16.2%
- viability, T/C [35]: 15.6%
- viability, T/C [36]: 16.1%
